Assay results as given in patent publication US5290757A (priority 1993, dated 1994).
Where a SMILES comes first, the peptide text is derived from it.

Legend:
[1] = system: perennial ryegrass (Lolium perenne) seeds; assay: Petri dish root-inhibition bioassay on perennial ryegrass seeds; assay type: in vivo; conditions: for Root Length of Perennial Ryegrass Seedlings Expressed as a Percentage of the Control: average of 2 trials; for relative effectiveness among the five dipeptides: perennial ryegrass root inhibition
Description: Bioactive fractions of the eluate were identified with bioassays, then pooled and subjected to further purification steps. […] The dishes were sealed with parafilm and placed in a controlled environmental chamber. The light intensity in the growth chamber was 70 μmol m^-2 s^-1 at 25° C./15° C. day/night temperature with a 16 hr photoperiod. One ml of a given eluate fraction was applied to the filter paper in each petri dish. The study was conducted with seven replications for each eluate fraction. […] Louis, Mo. The fifth, Gln-Gln, was obtained from Bachem Bioscience Inc. The activity of each synthetically derived peptide was tested in seven replications on perennial ryegrass using the same bioassay technique described in Example 4 in the presence of increasing amounts of the dipeptides mixed with distilled water (Table V).

[2] = system: creeping bentgrass (Agrostis palustris); assay: Soil pot study of dipeptide bioactivity on creeping bentgrass; assay type: in vivo; conditions: for Mean root length of creeping bentgrass seedlings / Percentage of creeping bentgrass plants surviving: 21 days after treatment
Description: In a study designed to verify the bioactivity of the dipeptides on soil, Ala-Gln and Gly-Ala were applied to the surface of 56.3 cm^2 plastic pots filled with a Nicollet (fine, loamy, […], Aquic Hapludol soil. The two dipeptides were applied at 0 to 3552 mg/dm^2. […] The test specie was creeping bentgrass (Agrostis palustris).

[3] = 8 μg/cm^2 dipeptide on filter paper
[4] = 13 μg/cm^2 dipeptide on filter paper
[5] = 21 μg/cm^2 dipeptide on filter paper
[6] = 26 μg/cm^2 dipeptide on filter paper
[7] = 31 μg/cm^2 dipeptide on filter paper
[8] = 39 μg/cm^2 dipeptide on filter paper
[9] = 52 μg/cm^2 dipeptide on filter paper
[10] = concentrations of 1.8 g/dm^2 and above
[11] = much lower concentrations than 1.8 g/dm^2

SMILES | Root Length of Perennial Ryegrass Seedlings Expressed as a Percentage of the Control [1, 3] | Root Length of Perennial Ryegrass Seedlings Expressed as a Percentage of the Control [1, 4] | Root Length of Perennial Ryegrass Seedlings Expressed as a Percentage of the Control [1, 5] | Root Length of Perennial Ryegrass Seedlings Expressed as a Percentage of the Control [1, 6] | Root Length of Perennial Ryegrass Seedlings Expressed as a Percentage of the Control [1, 7] | Root Length of Perennial Ryegrass Seedlings Expressed as a Percentage of the Control [1, 8] | Root Length of Perennial Ryegrass Seedlings Expressed as a Percentage of the Control [1, 9] | relative effectiveness among the five dipeptides [1] | Mean root length of creeping bentgrass seedlings ([2]; 89 mg/dm^2 on soil surface) | Percentage of creeping bentgrass plants surviving ([2]; 89 mg/dm^2 on soil surface) | Mean root length of creeping bentgrass seedlings ([2]; 178 mg/dm^2 on soil surface) | Percentage of creeping bentgrass plants surviving ([2]; 178 mg/dm^2 on soil surface) | Mean root length of creeping bentgrass seedlings ([2]; 355 mg/dm^2 on soil surface) | Percentage of creeping bentgrass plants surviving ([2]; 355 mg/dm^2 on soil surface) | Mean root length of creeping bentgrass seedlings ([2]; 710 mg/dm^2 on soil surface) | Percentage of creeping bentgrass plants surviving ([2]; 710 mg/dm^2 on soil surface) | Mean root length of creeping bentgrass seedlings ([2]; 1066 mg/dm^2 on soil surface) | Percentage of creeping bentgrass plants surviving ([2]; 1066 mg/dm^2 on soil surface) | Mean root length of creeping bentgrass seedlings ([2]; 1776 mg/dm^2 on soil surface) | Percentage of creeping bentgrass plants surviving ([2]; 1776 mg/dm^2 on soil surface) | also measured
C[C@H](N)C(=O)N[C@@H](C)C(=O)O [Ala-Ala, alaninyl-alanine] (H-Ala-Ala-OH) | 74% | 44% | 27% | 5% | 1% | 2% | 0% | most effective |  |  |  |  |  |  |  |  |  |  |  |  | 
C[C@H](N)C(=O)N[C@@H](CC(N)=O)C(=O)O [Ala-Asn, alaninylasparagine] (H-Ala-Asn-OH) | 101% | 85% | 63% | 29% | 2% | 0% | 0% | most effective |  |  |  |  |  |  |  |  |  |  |  |  | 
C[C@H](N)C(=O)N[C@@H](CCC(N)=O)C(=O)O [Ala-Gln, alaninyl-glutamine] (H-Ala-Gln-OH) | 83% | 70% | 49% | 41% | 4% | 0% | 0% |  | 20 mm | 100% | 15 mm | 40% | 2 mm | 30% | 0 mm | 25% | 0 mm | 5% | 0 mm | 0% | Mean root length of creeping bentgrass seedlings ([2]; 3552 mg/dm^2 on soil surface): 0 mm; Percentage of creeping bentgrass plants surviving ([2]; 3552 mg/dm^2 on soil surface): 0%; inhibition of emergence and establishment of creeping bentgrass [2, 10]: completely inhibit; inhibition of emergence and establishment of creeping bentgrass [2, 11]: partially effective
NC(=O)CC[C@H](NC(=O)[C@@H](N)CCC(N)=O)C(=O)O [Gln-Gln, glutaminyl-glutamine] (H-Gln-Gln-OH) | 107% | 89% | 82% | 63% | 12% | 3% | 0% |  |  |  |  |  |  |  |  |  |  |  |  |  | 
C[C@H](NC(=O)CN)C(=O)O [Gly-Ala, glycinyl-alanine] (H-Gly-Ala-OH) | 95% | 68% | 29% | 16% | 9% | 2% | 0% |  | 20 mm | 105% | 15 mm | 40% | 5 mm | 30% | 2 mm | 25% | 2 mm | 25% | 0 mm | 0% | Mean root length of creeping bentgrass seedlings ([2]; 3552 mg/dm^2 on soil surface): 0 mm; Percentage of creeping bentgrass plants surviving ([2]; 3552 mg/dm^2 on soil surface): 0%; inhibition of emergence and establishment of creeping bentgrass [2, 10]: completely inhibit; inhibition of emergence and establishment of creeping bentgrass [2, 11]: partially effective
